In EP1475385A1 (Newron Pharmaceuticals S.p.A., priority 2003, dated 2004):
Like-named read-outs stand apart in the source and are kept apart here.

What was measured:
GLU = assay: Striatal GLU release by transcerebral microdialysis (caudate); format: in vivo, Wistar rats; settings: caudate dialysate
Procedure: (§1) Striatal GLU release: Transcerebral microdialysis tubing having an exposed length of 1 mm for each caudate, were implanted through small burr holes drilled in the skull of anesthetized male Wistar rats. Approximately twelve hours after surgery, in freely moving animals, the membranes were perfused at a flow rate of 3.5 µl/min. After a washout period of approximately one hour, fractions were collected to determine the basal output of KYNA and of GLU. KYNA was measured using HPLC with post column derivatization and fluorometric detection as previously reported. HPLC separation and fluorometric detection was also used for quantitative measurements of GLU (Carpenedo et al 2001, Europ. J. Neuroscience 13, 2141-2147).

KYNA [1] = assay: KYNA output in caudate dialysate by transcerebral microdialysis; format: in vivo, Wistar rats
Procedure: as §1

brain KMO = target: T1, brain KMO (Rattus norvegicus, UniProt O88867); assay: In vitro KMO activity determination (rat brain mitochondria preparation, HPLC of 3-OH-KYN formation); format: biochemical
T1 construct: from tissue; host or cells: rat brain cortex, mitochondrial fraction (male Wistar rats)
T1 sequence (O88867 whole entry): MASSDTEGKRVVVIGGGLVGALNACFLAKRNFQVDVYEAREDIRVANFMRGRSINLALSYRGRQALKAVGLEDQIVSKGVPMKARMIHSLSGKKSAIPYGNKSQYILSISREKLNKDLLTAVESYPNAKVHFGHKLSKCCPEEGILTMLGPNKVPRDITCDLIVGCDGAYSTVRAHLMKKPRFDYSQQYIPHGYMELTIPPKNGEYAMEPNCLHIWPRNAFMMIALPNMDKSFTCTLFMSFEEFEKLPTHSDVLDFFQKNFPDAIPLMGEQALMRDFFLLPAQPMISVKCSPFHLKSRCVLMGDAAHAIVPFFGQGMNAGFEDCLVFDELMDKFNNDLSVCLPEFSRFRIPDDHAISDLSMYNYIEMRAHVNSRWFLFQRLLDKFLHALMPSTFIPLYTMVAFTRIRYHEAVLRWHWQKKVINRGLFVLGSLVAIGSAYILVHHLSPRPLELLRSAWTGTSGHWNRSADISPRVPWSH
Procedure: Rat brain mitochondria preparation: Male Wistar rats were sacrificed and brain quickly removed, cortex was dissected out on ice and homogenized in 2.5 volumes of ice-cold 0.32 M saccarose using a glass-Teflon homogenizer. After centrifugation at 600 g for 10 min at 4°C, the supernatant was stored and the pellet was washed and centrifuged again. The two supernatants were pooled and centrifuged at 10,000 g for 10 min at 4°C. The pellet was washed in fresh saccarose and centrifuged twice at 15,000 g for 10 min at 4°C. The pellet (corresponding to the mitochondrial fraction) was resuspended in 2.5 volumes of ice-cold 20 mM potassium phosphate buffer containing 0.14 M KCl, pH 7.0. Protein content was determined by BCA protein assay kit from Pierce.
In vitro KMO activity determination: The enzyme activity was evaluated by measuring by HPLC the formation of 3-OH-KYN in homogenates incubated in the presence of a fixed concentration of KYN (close to the enzyme Km that in our experimental conditions is 30 µM) […]
IC50 values were determined from three independent inhibition curves using at least seven different inhibitor concentrations using non linear regression analysis (best fitting aided-computer program.

KYNA [2] = assay: Measurement of hippocampal KYNA levels by microdialysis; format: in vivo, rats
Procedure: Measurement of hippocampal kyna levels: Microdialysis was performed in adult, male rats (Charles-River; 200-250 g). Under anesthesia, a microdialysis probe (CMA/10, membrane length: 2 mm, Carnegie […], Stockholm, Sweden) was implanted vertically into the brain, extending throughout the dorsal hippocampus. On the next day, the probe was connected to a microperfusion pump, and the hippocampus of the unanesthetized rat was perfused with Ringer solution at a speed of 1 microliter/min. Dialysate was collected every 30 min. The concentration of KYNA in the dialysis samples was determined by HPLC with fluorimetric detection, using the analytical procedure described by Wu et al. (Eur. J. Neurosci., 4: 1264-1270,1992).

KMO = KMO (Homo sapiens, UniProt O15229); settings: reported in WO 98/40344; read-out: IC50 for KMO inhibition; cited from earlier work
KMO, sequence (O15229 whole entry, species assumed): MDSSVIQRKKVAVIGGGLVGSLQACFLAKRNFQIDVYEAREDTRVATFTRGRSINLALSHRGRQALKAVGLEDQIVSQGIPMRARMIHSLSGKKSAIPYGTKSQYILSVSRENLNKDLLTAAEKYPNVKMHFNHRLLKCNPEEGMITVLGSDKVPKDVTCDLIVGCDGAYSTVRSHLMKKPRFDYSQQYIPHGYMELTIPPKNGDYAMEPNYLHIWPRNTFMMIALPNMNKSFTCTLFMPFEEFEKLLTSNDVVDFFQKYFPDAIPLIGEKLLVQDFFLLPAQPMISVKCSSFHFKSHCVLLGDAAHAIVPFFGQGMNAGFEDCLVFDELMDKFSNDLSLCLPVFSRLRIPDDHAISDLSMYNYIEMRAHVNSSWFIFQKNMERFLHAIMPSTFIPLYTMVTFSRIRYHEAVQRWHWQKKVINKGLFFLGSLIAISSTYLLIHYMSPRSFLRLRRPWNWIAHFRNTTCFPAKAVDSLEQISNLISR

Row | SMILES | decrease in GLU concentrations (GLU; 24 h later) | decrease in GLU concentrations (GLU; highest dose (30-100 µmol/kg i.p.), in 2 hrs (maximum), basal 4.3 ± 0.9 µM) | brain KYNA content, maximum increase (KYNA [1]; 180 min after drug administration, basal 13.2 ± 0.1 nM) | increase in dialysate KYNA concentration (KYNA [1]; up to 24 h after 100 µmol/kg i.p.) | IC50 (brain KMO; compound preincubated with mitochondria preparation for 30 min before adding the substrate (KYN), compared with IC50 without pre-incubation) | IC50 (brain KMO; in vitro brain KMO, without pre-incubation, KYN 50 µM, 60 min at 37°C, read-out: IC50) | KYNA extracellular concentration, maximum increase (KYNA [2]; hippocampus dialysate, 50 mg/kg ip, 6 hours after drug administration, mean ± SEM, P< 0.01, basal 2.6 ± 0.2 nM) | brain KYNA content (KYNA [2]; hippocampus, 25 and 50 mg/kg i.p., systemic administration) | dialysate KYNA concentration (KYNA [2]; hippocampus, up to 24 h after both 25 and 50 mg/kg i.p., P<0.05) | IC50 (KMO)
1 | O=C(OC[C@H]1O[C@H](O)[C@H](O)[C@@H](O)[C@H]1O)[C@H]1C[C@@H]1C(=O)c1ccc(Cl)c(Cl)c1 | -65% | -78 ± 8% | +750% | +280% | not significantly different | 66 nM | 26.7 ± 2.2 nM | dose-dependently increased | significant increase | –
2 | O=C(O)C1CC1C(=O)c1ccc(Cl)c(Cl)c1 (stereo not shown) [2-(3,4-dichlorobenzoyl)-cyclopropane-1-carboxylic acid] | – | – | – | – | – | – | – | – | – | 180 nM
